The test system of data set [1] is dd-strain male mice. In words: Acute toxicity test (minimum lethal dose, oral). The class given is in vivo. Conditions: oral administration, three mice per group, mortality seven days after administration. Here is the method: Test compounds were orally administered to groups of dd-strain male mice weighing 20 ± 1 g, each group consisting of three mice. Seven days after the administration, minimum lethal dose (MLD) of each compound was determined by observing the mortality.

The target in data set [2] is T1, A₂ receptor (Rattus norvegicus, UniProt P30543).
T1 construct: from tissue; host or cells: rat corpus striatum membrane preparation
Kind of data set: Adenosine A₂ receptor binding test (³H-CGS 21680 binding). To be noted: [^3H]CGS 21680 was used, rat corpus striatum, read-out: A2 Receptor Inhibition (%); for inhibition at 1 µM: 10^-6M; for inhibition at 0.1 µM: 10^-7M. As to the method: (§1) The similar procedure as in the above-described adenosine A₁ receptor binding test was repeated using rat corpus striatum to obtain the final precipitate of the tissue thereof. The precipitate was suspended in 50 mM Tris HCl buffer containing 10 mM magnesium chloride and 0.02 unit/mg tissue of adenosine deaminase (manufactured by Sigma Co.) to give a tissue concentration of 5 mg (wet weight)/ml.
The similar procedure as above was repeated to determine the radioactivity bound to the A₂ receptors using 50 µl of CGS 21680 labeled with tritium [³H-2-[p-(2-carboxyethyl)-phenethylamino]-5'-(N-ethylcarboxamide)adenosine: 40 Ci/mmol, manufactured by New England Nuclear Co. (J. Pharmacol. Exp. Ther., 251, 888 (1989)] (final concentration: 4.0 nM) in place of 50 µl of the mixture of N-ethylcarboxamidoadenosine labeled with tritium (³H-NECA: 26 Ci/mmol, manufactured by Amersham Co.) (final concentration: 3.8 nM) and cyclopentyladenosine (CPA, manufactured by Sigma Co.) (final concentration: 50 nM).
The inhibition rate of the test compound against the binding of A₂ receptors (³H-CGS 21680 binding) was calculated by the following equation: [formula] [Notes] • 1. "B" means the amount of radioactivity of ³H-CGS 21680 bound in the presence of a test compound at a concentration shown in Table 4. • 2. "T" means the amount of radioactivity of ³H-CGS 21680 bound in the absence of a test compound. • 3. "N" means the amount of radioactivity of ³H-CGS 21680 bound in the presence of 100 µM CPA.

In data set [3] the target is T1, A₂ receptor. In words: Adenosine A₂ receptor binding test (³H-NECA binding). Conditions: ³H-NECA binding, rat corpus striatum, read-out: Inhibition (%) A₂ Receptor; for inhibition at 1 µM: 10⁻⁶M; for inhibition at 0.1 µM: 10⁻⁷M. As to the method:
as §1
The mixture solution was allowed to stand at 25°C for 120 minutes and then treated in the same manner as in the adenosine A₁ receptor binding test to determine the radioactivity bound to the A₂ receptors.
The inhibition rate of the test compound against the binding of A₂ receptor (³H-NECA binding) was calculated by the following equation: [formula] [Notes] • 1.

Data set [4] concerns Haloperidol-Induced Catalepsy. Kind of data set: Effect on haloperidol-induced catalepsy. In kind it is in vivo, mice. To be noted: 10 mg/kg orally; for Number of the Animals Showing Remission: of five mice, catalepsy score not more than 4 points; for Remission Rate (%): rate of decrease in total score based on control group; for Total Score: total catalepsy score of five mice (25 points at the full), haloperidol 1.0 mg/kg i.p. Here is the method:
Haloperidol (Janssen Pharmaceutica) suspended in 0.3% CMC was intraperitoneally administered to each mouse at a dose of 1.0 mg/kg. Test compounds were suspended in 0.3% CMC or in injectable distilled water (Otsuka Pharmaceutical Co., Ltd.) containing Tween 80. L-DOPA (Kyowa Hakko Kogyo Co., Ltd.) and benserazide hydrochloride (Kyowa Hakko Kogyo Co., Ltd.) were suspended in 0.3% CMC. One hour after the haloperidol administration, the test compound suspensions and the control suspension [injectable distilled water (Otsuka Pharmaceutical Co., Ltd.) containing Tween 80] containing no test compound were orally administered to separate groups of the mice (0.1 ml per 10 g of body weight). One hour after the administration of the test compound, the forelimbs of each mouse and subsequently the hindlimbs of the same mouse were placed on a 4.5 cm-high, 1.0 cm-wide bar and catalepsy was estimated. […] The catalepsy score and the standard of judgment are shown below. […] The number of the animals showing remission against catalepsy is the number of the mice for which the catalepsy score was not more than 4 points. […] The ED₅₀ values were calculated by Probit analysis.

The inhibition is the percentage by which the read-out fell short of the control.

T1 sequence (P30543 whole entry): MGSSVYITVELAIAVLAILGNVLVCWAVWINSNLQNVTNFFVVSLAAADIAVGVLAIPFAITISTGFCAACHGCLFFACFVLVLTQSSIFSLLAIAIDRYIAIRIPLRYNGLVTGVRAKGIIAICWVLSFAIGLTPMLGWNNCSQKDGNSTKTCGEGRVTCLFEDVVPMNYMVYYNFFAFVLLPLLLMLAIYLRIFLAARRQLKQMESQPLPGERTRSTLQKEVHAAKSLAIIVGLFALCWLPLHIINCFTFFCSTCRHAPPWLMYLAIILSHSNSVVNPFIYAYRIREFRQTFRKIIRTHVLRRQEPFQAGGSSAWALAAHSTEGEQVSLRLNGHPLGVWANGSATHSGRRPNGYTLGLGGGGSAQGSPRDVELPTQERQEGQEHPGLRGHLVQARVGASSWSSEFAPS

As for `CCn1c(=O)c2[nH]c(/C=C/c3cccc(OC)c3)nc2n(CC)c1=O` [Compound 39, (E)-1,3-Diethyl-8-(3-methoxystyryl)xanthine], the MLD in data set [1] is more than 100 mg/kg. Further, in data set [2], the inhibition at 1 µM was 88% and the inhibition at 0.1 µM came out at 80%.

As for `CCCCOc1ccc(/C=C/c2nc3c([nH]2)c(=O)n(CC)c(=O)n3CC)cc1` [Compound 41, (E)-8-(4-Butoxystyryl)-1,3-diethylxanthine], the MLD in data set [1] is given as more than 100 mg/kg. In data set [2], the inhibition at 1 µM was 52% and the inhibition at 0.1 µM was 27%.

In data set [1], `CCCCOc1ccc(/C=C/c2nc3c(c(=O)n(CC)c(=O)n3CC)n2C)cc1` [Compound 42, (E)-8-(4-Butoxystyryl)-1,3-diethyl-7-methylxanthine] showed an MLD of more than 100 mg/kg. Also, in data set [2], the inhibition at 1 µM was found to be 87% and the inhibition at 0.1 µM came out at 46%.

As for `CCn1c(=O)c2[nH]c(/C=C/c3ccc(C)cc3)nc2n(CC)c1=O` [Compound 43, (E)-1,3-Diethyl-8-(4-methylstyryl)xanthine], the MLD in data set [1] is more than 100 mg/kg. Besides, in data set [2], the inhibition at 1 µM is 70% and the inhibition at 0.1 µM came to 68%.

With `CCn1c(=O)c2[nH]c(/C=C/c3ccc(OC)c(C)c3)nc2n(CC)c1=O` [Compound 47, (E)-1,3-Diethyl-8-(4-methoxy-3-methylstyryl)xanthine], in data set [1], the MLD is on record as more than 100 mg/kg. In data set [2], the inhibition at 1 µM turned out to be 92% and the inhibition at 0.1 µM was 67%.

`CCn1c(=O)c2c(nc(/C=C/c3ccc(OC)c(C)c3)n2C)n(CC)c1=O` [Compound 48, (E)-1,3-Diethyl-8-(4-methoxy-3-methylstyryl)-7-methylxanthine] had an MLD in data set [1] of more than 100 mg/kg. For the same compound, in data set [2], the inhibition at 1 µM turned out to be 99% and the inhibition at 0.1 µM amounted to 83%.

`CCn1c(=O)c2[nH]c(/C=C/c3cc(OC)cc(OC)c3)nc2n(CC)c1=O` [Compound 67, (E)-8-(3,5-Dimethoxystyryl)-1,3-diethylxanthine]: in data set [1], the MLD is more than 100 mg/kg. Further, in data set [3], the inhibition at 1 µM is 73% and the inhibition at 0.1 µM was found to be 73%. In addition, in data set [4], the “Number of the Animals Showing Remission” value is on record as 5, the “Remission Rate (%)” value is 64% and the “Total Score” value stood at 9.

For the compound `CCn1c(=O)c2c(nc(/C=C/c3cc(OC)cc(OC)c3)n2C)n(CC)c1=O` [Compound 68, (E)-8-(3,5-Dimethoxystyryl)-1,3-diethyl-7-methylxanthine], the MLD in data set [1] is recorded as more than 300 mg/kg. Further, in data set [3], the inhibition at 1 µM is 88% and the inhibition at 0.1 µM worked out at 81%. Besides, in data set [4], the “Number of the Animals Showing Remission” value was 5, the “Remission Rate (%)” value is 80% and the “Total Score” value came out at 5.

Regarding `CCn1c(=O)c2c(nc(/C=C/c3cccc(Cl)c3)n2C)n(CC)c1=O` [Compound 70, (E)-8-(3-Chlorostyryl)-1,3-diethyl-7-methylxanthine], the MLD in data set [1] was more than 300 mg/kg. Further, in data set [3], the inhibition at 1 µM worked out at 84% and the inhibition at 0.1 µM was determined as 76%. Further, in data set [4], the “Number of the Animals Showing Remission” value came to 4, the “Remission Rate (%)” value is 44% and the “Total Score” value is given as 14.

In turn, `CCn1c(=O)c2c(nc(/C=C/c3ccc(C(F)(F)F)cc3)n2C)n(CC)c1=O` [Compound 74, (E)-1,3-Diethyl-7-methyl-8-(4-trifluoromethylstyryl)xanthine] yielded an MLD in data set [1] of more than 300 mg/kg. Moreover, in data set [2], the inhibition at 1 µM is 87% and the inhibition at 0.1 µM worked out at 59%.

In turn, `CCn1c(=O)c2c(nc(/C(F)=C\c3ccccc3)n2C)n(CC)c1=O` [Compound 76, (E)-1,3-Diethyl-8-(α-fluorostyryl)-7-methylxanthine] came in with an MLD in data set [1] of more than 100 mg/kg. In addition, in data set [3], the inhibition at 1 µM came out at 69% and the inhibition at 0.1 µM was determined as 30%. Also, in data set [4], the “Number of the Animals Showing Remission” value stood at 4, the “Remission Rate (%)” value stood at 40% and the “Total Score” value is 15.

In turn, `CCn1c(=O)c2[nH]c(/C=C/c3ccc(Br)cc3)nc2n(CC)c1=O` [Compound 77, (E)-8-(4-Bromostyryl)-1,3-diethylxanthine] yielded an MLD in data set [1] of more than 100 mg/kg. For the same compound, in data set [2], the inhibition at 1 µM amounted to 54% and the inhibition at 0.1 µM came out at 54%.

The compound `CCn1c(=O)c2[nH]c(/C=C/c3cccc(OC(F)(F)F)c3)nc2n(CC)c1=O` [Compound 79, (E)-1,3-Diethyl-8-(3-trifluoromethoxystyryl)xanthine] registered an MLD in data set [1] of more than 100 mg/kg. Also, in data set [2], the inhibition at 1 µM was 79% and the inhibition at 0.1 µM was 53%.

In turn, `CCn1c(=O)c2c(nc(/C=C/c3cccc(OC(F)(F)F)c3)n2C)n(CC)c1=O` [Compound 80, (E)-1,3-Diethyl-7-methyl-8-(3-trifluoromethoxystyryl)xanthine] showed an MLD in data set [1] of more than 100 mg/kg. For the same compound, in data set [2], the inhibition at 1 µM came out at 86% and the inhibition at 0.1 µM stood at 72%.

`CCn1c(=O)c2[nH]c(/C=C/c3ccc(OCOC)cc3)nc2n(CC)c1=O` [Compound 81, (E)-1,3-Diethyl-8-(4-methoxymethoxystyryl)xanthine] came in with an MLD in data set [1] of more than 100 mg/kg. Also, in data set [2], the inhibition at 1 µM was found to be 95% and the inhibition at 0.1 µM was found to be 78%.

For the compound `CCn1c(=O)c2[nH]c(/C=C/c3ccc(F)cc3)nc2n(CC)c1=O` [Compound 83, (E)-1,3-Diethyl-8-(4-fluorostyryl)xanthine], in data set [1], the MLD is more than 100 mg/kg. In data set [2], the inhibition at 1 µM is 70% and the inhibition at 0.1 µM came out at 75%.

The compound `CCn1c(=O)c2[nH]c(/C=C/c3cc(F)cc(F)c3)nc2n(CC)c1=O` [Compound 87, (E)-8-(3,5-Difluorostyryl)-1,3-diethylxanthine] displayed an MLD in data set [1] of more than 100 mg/kg. In addition, in data set [2], the inhibition at 1 µM amounted to 66% and the inhibition at 0.1 µM amounted to 59%.

Consider `CCn1c(=O)c2[nH]c(/C=C/c3cccc([N+](=O)[O-])c3)nc2n(CC)c1=O` [Compound 89, (E)-1,3-Diethyl-8-(3-nitrostyryl)xanthine], for which the MLD in data set [1] was more than 100 mg/kg. In data set [2], the inhibition at 1 µM is 78% and the inhibition at 0.1 µM came out at 59%.

The compound `CCn1c(=O)c2[nH]c(/C=C/c3cccc(Br)c3)nc2n(CC)c1=O` [Compound 91, (E)-8-(3-Bromostyryl)-1,3-diethylxanthine] returned an MLD in data set [1] of more than 100 mg/kg. In data set [2], the inhibition at 1 µM came out at 51% and the inhibition at 0.1 µM was 9%.

Compound `CCn1c(=O)c2[nH]c(/C=C/c3cccc(C(F)(F)F)c3)nc2n(CC)c1=O` [Compound 93, (E)-1,3-Diethyl-8-(3-trifluoromethylstyryl)xanthine] displayed an MLD in data set [1] of more than 100 mg/kg. Besides, in data set [2], the inhibition at 1 µM came to 85% and the inhibition at 0.1 µM stood at 53%.

In data set [1], `CCn1c(=O)c2c(nc(/C=C/c3cccc(C(F)(F)F)c3)n2C)n(CC)c1=O` [Compound 94, (E)-1,3-Diethyl-7-methyl-8-(3-trifluoromethylstyryl)xanthine] yielded an MLD of more than 100 mg/kg. Also, in data set [2], the inhibition at 1 µM came out at 98% and the inhibition at 0.1 µM is 71%.

`CCn1c(=O)c2[nH]c(/C=C/c3cc4c(cc3Br)OCO4)nc2n(CC)c1=O` [Compound 95, (E)-8-(2-Bromo-4,5-methylenedioxystyryl)-1,3-diethylxanthine] gave an MLD in data set [1] of more than 100 mg/kg. In data set [2], the inhibition at 1 µM was determined as 89% and the inhibition at 0.1 µM was determined as 75%.

The record behind these values is patent publication EP0590919A1, “Therapeutic agents for parkinson's disease” (KYOWA HAKKO KOGYO CO., LTD., priority 1992, dated 1994).
